Species: Rattus norvegicus
Assay: Open TG-GATES - Regimen: Single
Format: toxicity, organism-based, Sprague-Dawley
Design: regimen Single, gender Male, age 6 weeks
Details: in vivo, iv, 0 mg/kg, route intravenous injection, dose level Control; for APTT / Bas / Eos / Fbg / Hb / Ht / Lym / MCH / MCHC / MCV / Mono / PT / Plat / RBC / Ret / WBC: tissue Blood; for KIDNEY_L / KIDNEY_R / KIDNEY_TOTAL: tissue Kidney; for LIVER: tissue Liver; for ALP / ALT / AST / BUN / CRE / Ca / Cl / DBIL / GLC / IP / K / LDH / Na / PL / RALB / TBIL / TC / TG / TP / gamma-GTP: tissue Plasma

CC(=O)OCC1=C(C(=O)O)N2C(=O)[C@@H](NC(=O)Cc3cccs3)[C@H]2SC1 [CEPHALOTHIN] gave a TERMINAL_BW (3 h) of 214.5 g, an APTT (3 h) of 22.3 s and a Bas (3 h) of 0%. For the same compound, the Eos (3 h) was 0.8%, the Fbg (3 h) was 274.6 mg/dL and the Hb (3 h) was 13.2 g/dL. For the same compound, the Ht (3 h) was 38.5%, the Lym (3 h) was 80% and the MCH (3 h) was 20.9 pg. For the same compound, the MCHC (3 h) was 34.2%, the MCV (3 h) was 61.2 fL and the Mono (3 h) was 2.8%. The PT (3 h) was 16.5 s, the Plat (3 h) was 124.3 x10_4/uL and the RBC (3 h) was 629.6 x10_4/ul. It also gave a Ret (3 h) of 6.1%, a WBC (3 h) of 84.8 x10_2/uL and a KIDNEY_L (3 h) of 1 g. For the same compound, the KIDNEY_R (3 h) was 1 g, the KIDNEY_TOTAL (3 h) was 2 g and the LIVER (3 h) was 10.2 g. It also gave an ALP (3 h) of 1573.2 IU/L, an ALT (3 h) of 46.4 IU/L and an AST (3 h) of 85.6 IU/L. For the same compound, the BUN (3 h) was 12.4 mg/dL, the CRE (3 h) was 0.2 mg/dL and the Ca (3 h) was 10.5 mg/dL. It also gave a Cl (3 h) of 107.4 meq/L, a DBIL (3 h) of 0 mg/dL and a GLC (3 h) of 176.2 mg/dL. It also gave an IP (3 h) of 7.6 mg/dL, a K (3 h) of 4.3 meq/L and an LDH (3 h) of 171.6 IU/L. For the same compound, the Na (3 h) was 142 meq/L, the PL (3 h) was 117.2 mg/dL and the RALB (3 h) was 2.8 g/dL. The TBIL (3 h) was 0.016 mg/dL, the TC (3 h) was 60.8 mg/dL and the TG (3 h) was 69.2 mg/dL. For the same compound, the TP (3 h) was 5.1 g/dL, the gamma-GTP (3 h) was 1 IU/L and the TERMINAL_BW (6 h) was 214.9 g. The APTT (6 h) was 22.2 s, the Bas (6 h) was 0% and the Eos (6 h) was 0.8%. The Fbg (6 h) was 279.4 mg/dL, the Hb (6 h) was 13.1 g/dL and the Ht (6 h) was 38.1%. It also gave a Lym (6 h) of 74.2%, an MCH (6 h) of 21.1 pg and an MCHC (6 h) of 34.3%. It also gave an MCV (6 h) of 61.7 fL, a Mono (6 h) of 2.4% and a PT (6 h) of 16.2 s. For the same compound, the Plat (6 h) was 129.1 x10_4/uL, the RBC (6 h) was 618.8 x10_4/ul and the Ret (6 h) was 6.4%. It also gave a WBC (6 h) of 81.7 x10_2/uL, a KIDNEY_L (6 h) of 1 g and a KIDNEY_R (6 h) of 1 g. For the same compound, the KIDNEY_TOTAL (6 h) was 2 g, the LIVER (6 h) was 9.1 g and the ALP (6 h) was 1313 IU/L. The ALT (6 h) was 41.6 IU/L, the AST (6 h) was 80 IU/L and the BUN (6 h) was 9.2 mg/dL. It also gave a CRE (6 h) of 0.2 mg/dL, a Ca (6 h) of 10.2 mg/dL and a Cl (6 h) of 105.4 meq/L. For the same compound, the DBIL (6 h) was 0.002 mg/dL, the GLC (6 h) was 184.8 mg/dL and the IP (6 h) was 9.3 mg/dL. The K (6 h) was 4.3 meq/L, the LDH (6 h) was 176.2 IU/L and the Na (6 h) was 141.4 meq/L. The PL (6 h) was 122 mg/dL, the RALB (6 h) was 2.8 g/dL and the TBIL (6 h) was 0.02 mg/dL. For the same compound, the TC (6 h) was 67.8 mg/dL, the TG (6 h) was 41 mg/dL and the TP (6 h) was 5.1 g/dL. It also gave a gamma-GTP (6 h) of 1.4 IU/L, a TERMINAL_BW (9 h) of 217.3 g and an APTT (9 h) of 23.9 s. For the same compound, the Bas (9 h) was 0%, the Eos (9 h) was 1% and the Fbg (9 h) was 305.4 mg/dL. The Hb (9 h) was 13.5 g/dL, the Ht (9 h) was 39.5% and the Lym (9 h) was 81.4%. The MCH (9 h) was 21 pg, the MCHC (9 h) was 34% and the MCV (9 h) was 61.6 fL. It also gave a Mono (9 h) of 2%, a PT (9 h) of 15.7 s and a Plat (9 h) of 132.6 x10_4/uL. It also gave an RBC (9 h) of 641.6 x10_4/ul, a Ret (9 h) of 6.4% and a WBC (9 h) of 93.1 x10_2/uL. It also gave a KIDNEY_L (9 h) of 0.9 g, a KIDNEY_R (9 h) of 1 g and a KIDNEY_TOTAL (9 h) of 1.9 g. The LIVER (9 h) was 9 g, the ALP (9 h) was 1321.4 IU/L and the ALT (9 h) was 37.2 IU/L. The AST (9 h) was 81.2 IU/L, the BUN (9 h) was 9.2 mg/dL and the CRE (9 h) was 0.2 mg/dL. For the same compound, the Ca (9 h) was 10.4 mg/dL, the Cl (9 h) was 106.2 meq/L and the DBIL (9 h) was 0 mg/dL. It also gave a GLC (9 h) of 186.6 mg/dL, an IP (9 h) of 9.6 mg/dL and a K (9 h) of 4.3 meq/L. The LDH (9 h) was 157.4 IU/L, the Na (9 h) was 141.6 meq/L and the PL (9 h) was 121.8 mg/dL. For the same compound, the RALB (9 h) was 2.9 g/dL, the TBIL (9 h) was 0.022 mg/dL and the TC (9 h) was 67.4 mg/dL. The TG (9 h) was 60 mg/dL, the TP (9 h) was 5.3 g/dL and the gamma-GTP (9 h) was 1.2 IU/L. The TERMINAL_BW (24 h) was 225.8 g, the APTT (24 h) was 21 s and the Bas (24 h) was 0%. The Eos (24 h) was 0.8%, the Fbg (24 h) was 302.4 mg/dL and the Hb (24 h) was 12.9 g/dL. It also gave a Ht (24 h) of 37.9%, a Lym (24 h) of 79.2% and an MCH (24 h) of 21.2 pg. The MCHC (24 h) was 33.9%, the MCV (24 h) was 62.3 fL and the Mono (24 h) was 2.4%. It also gave a PT (24 h) of 16.5 s, a Plat (24 h) of 128.1 x10_4/uL and an RBC (24 h) of 607.2 x10_4/ul. For the same compound, the Ret (24 h) was 6.3%, the WBC (24 h) was 89.6 x10_2/uL and the KIDNEY_L (24 h) was 1 g. For the same compound, the KIDNEY_R (24 h) was 1 g, the KIDNEY_TOTAL (24 h) was 1.9 g and the LIVER (24 h) was 10.8 g. The ALP (24 h) was 1398.6 IU/L, the ALT (24 h) was 44.4 IU/L and the AST (24 h) was 76.2 IU/L. The BUN (24 h) was 17.2 mg/dL, the CRE (24 h) was 0.2 mg/dL and the Ca (24 h) was 10.9 mg/dL. For the same compound, the Cl (24 h) was 105.8 meq/L, the DBIL (24 h) was 0 mg/dL and the GLC (24 h) was 189.4 mg/dL. For the same compound, the IP (24 h) was 7.3 mg/dL, the K (24 h) was 4.5 meq/L and the LDH (24 h) was 221 IU/L. For the same compound, the Na (24 h) was 142.4 meq/L, the PL (24 h) was 145.8 mg/dL and the RALB (24 h) was 3 g/dL. It also gave a TBIL (24 h) of 0.012 mg/dL, a TC (24 h) of 74.4 mg/dL and a TG (24 h) of 74.6 mg/dL. The TP (24 h) was 5.5 g/dL and the gamma-GTP (24 h) was 1.4 IU/L.

From ChEMBL document CHEMBL3885861, “Open TG-GATES”
